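Protocol summary: plate cells (96-well), add compound at 5 concentrations, incubate 48 h, interpolate endpoints linearly. Here, GI50 denotes the concentration required for 50% inhibition of growth.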 Activity calls are given as the source filed them. Rule as the data show it: active = GI50 up to about 1.1 µM and inactive = higher.
What was measured:
Experiment in all cases: growth of human tumour cells (NCI), 48 h
CAKI-1 = test system: CAKI-1
HOP-62 = test system: HOP-62
BT-549 = test system: BT-549
XF498 = test system: XF498
SW-620 = test system: SW-620
NCI-H226 = test system: NCI-H226
SN12C = test system: SN12C
SF-295 = test system: SF-295
U-251 = test system: U-251
KM12 = test system: KM12
MCF7 = test system: MCF7
DLD-1 = test system: DLD-1
TK-10 = test system: TK-10
SNB-75 = test system: SNB-75
786-0 = test system: 786-0
SK-OV-3 = test system: SK-OV-3
HOP-18 = test system: HOP-18
EKVX = test system: EKVX
OVCAR-5 = test system: OVCAR-5
T47D = test system: T47D

Measured: GI50

COc1cc(C(=O)c2cocc2C(=O)c2ccc3c(c2)OCO3)cc(OC)c1OC
inactive: XF498 1.34 µM | NCI-H226 1.8 µM | SN12C 1.49 µM | TK-10 3.18 µM | SK-OV-3 2.49 µM | HOP-18 > 51.1 µM | EKVX 6.64 µM | OVCAR-5 18.6 µM
active: CAKI-1 0.378 µM | HOP-62 1 µM | BT-549 0.149 µM | SW-620 0.316 µM | SF-295 0.351 µM | U-251 0.537 µM | KM12 0.254 µM | MCF7 0.217 µM | DLD-1 0.867 µM | SNB-75 0.336 µM | 786-0 0.57 µM

CCCCCC/C=C1\CCC(CN(C)C)C1=O (stereo not drawn)
inactive: CAKI-1 4.75 µM | HOP-62 19.6 µM | BT-549 18.9 µM | XF498 3.31 µM | SW-620 2.56 µM | NCI-H226 18.7 µM | SN12C 3.74 µM | SF-295 12.7 µM | U-251 4.25 µM | KM12 2.48 µM | MCF7 1.86 µM | DLD-1 2.23 µM | T47D 2.86 µM | TK-10 3.53 µM | SNB-75 11 µM | 786-0 1.98 µM | SK-OV-3 20.3 µM | HOP-18 15.4 µM | EKVX 16 µM | OVCAR-5 16.9 µM

COc1ccc(CCc2cc(OC)c(OC)c(OC)c2)cc1
active: CAKI-1 0.0206 µM | HOP-62 0.0196 µM | XF498 < 0.01 µM | SW-620 0.0171 µM | NCI-H226 0.386 µM | SN12C 0.114 µM | SF-295 0.0178 µM | U-251 0.0247 µM | KM12 0.0118 µM | MCF7 0.0283 µM | DLD-1 < 0.01 µM | SNB-75 0.0395 µM | 786-0 0.15 µM | SK-OV-3 0.0236 µM | OVCAR-5 0.456 µM
inactive: BT-549 2.32 µM | TK-10 2.64 µM | HOP-18 > 100 µM | EKVX 1.18 µM

Source: ChEMBL document CHEMBL1201862, “PubChem BioAssay data set” (2004)
